These results are taken from patent US5446186A, “Structure and synthesis of nitrophenyl-EGTA, a caged calcium, intermediates thereof and a method of producing a high photochemical yield of liberated calcium” (priority 1993, dated 1995).

Structures are written as SMILES. Entries after “also recorded” stand apart in the source; their conditions may differ. Where two headings read alike, the source gives them in different places. Bounds are passed on as bounds.

Usually Kd stands for the constant that tells how readily two partners part at equilibrium.

Series [1] deals with chemically skinned psoas fibers from rabbit skeletal muscle. Nature of the series: Ca-induced contraction of chemically skinned skeletal muscle fibers after laser flash photolysis. The note with it: for time to achieve half-maximal tension: 15° C., 347 nm ruby laser flash, NP-EGTA:Ca^2+ 1.9 mM at 1 mM free Mg^2+, or DM-nitrophen:Ca^2+ 1.4 mM at 40 μM free Mg^2+; for tension transients, NP-EGTA compared with DM-nitrophen: photoreleased Ca^2+; for maximal contraction / full tension after laser flash: single 347 nm ruby laser flash, free Mg^2+ 1 mM (NP-EGTA), 40 μM (DM-nitrophen); for Ca^2+ release as rate-limiting step for contraction: skinned skeletal muscle fiber. The series is classed as cell-based. The text has this:
The arrow indicates the time of a pulse from a frequency-doubled ruby laser (347 nm). For DM-nitrophen, before photolysis, the muscle-bathing solution contained (mM): Tes (100), HDTA (27.91), ATPNa2 (3.0), creatine phosphate (20), glutathione (10), DM-nitrophen (2.0), MgCl2 (1.19), CaCl2 (1.60). In the NP-EGTA solution there was (mM): Tes (100), HDTA (25.35), ATPNa2 (5.50), creatine phosphate (20), glutathione (10), NP-EGTA (2.1), MgCl2 (7.0), CaCl2 (1.9). The pH of both solutions was 7.0; the ionic strength was 0.2M. Tension development was measured as in Ref. 24.
Photolysis of nitrophenyl-EGTA:Ca^2+ and DM-nitrophen:Ca^2+ complexes were used to release Ca^2+ rapidly in chemically skinned psoas fibers from rabbit skeletal muscle. […] The time to achieve half-maximal tension using NP-EGTA was 17.9 ms and 18.1 ms with DM-nitrophen at 15° C. (see FIG. 4). […] It is interesting that there are no major effects, on the rate of the development of tension nor on the maximal contraction, due to a change in [Mg]free from 40 μM to 1 mM in these experiments.

For series [2] the following is noted: pH 7.2; before photolysis; read-out: Kd for Ca^2+ (comparison chelators); cited from earlier work.
For series [3] the following is noted: DM-nitrophen:Ca^2+ complex; cited from earlier work.
Series [4] is described as follows: Ca^2+ affinity by titration of chelator with Ca^2+, fluo-3 emission, Scatchard analysis. The series is classed as binding. The note with it: 40 mM hepes, 100 mM KCl, pH 7.2, 20° C.; before photolysis. The text has this: The affinity of NP-EGTA for Ca^2+ was obtained by titration of the chelator with incremental additions of Ca^2+. […] For any chelator:Ca^a+ complex to function effectively as a caged Ca, the pre-photolysis affinity should be high for two reasons. First, it is crucial that the resting or pre-photolysis [Ca^2+ ] is very low, i.e. that it is non-activating or sub-threshold for the biological system being investigated. The Kd^Ca and the total amounts of Ca^2+ and chelator determine [Ca^2+ ]free. Secondly, the percentage of chelator loaded with Ca^2+ before photolysis is important as this is a factor which determines how much Ca^2+ is liberated upon photolysis, as Ca^2+ can only be photoreleased if it is complexed. Also, if the chelator is frilly loaded, then the photoreleased Ca^2+ will not be rebound by unphotolysed, unloaded chelator, i.e. step increases rather than pulses of Ca^2+ will be produced (see ref. 19, 20).

Series [5] in a line: Mg^2+ affinity by titration of Mg^2+-indicator mag-fura-red without and with NP-EGTA. Conditions: 40 mM hepes, 100 mM KCl, pH 7.2, 25° C.; absorbance at 480 nm. The series is classed as binding. The method, then:
The Mg^2+ affinity of NP-EGTA was determined by titration of the Mg^2+ -indicator, mag-fura-red (20 μM) without and with NP-EGTA (10 mM) in buffer (40 mM hepes, 100 mM KCl, pH=7.2) at 25° C.

A short description of series [6]: Selectivity for Ca^2+ versus Mg^2+: fluo-3 signal on addition of 1 mM Mg^2+ and on irradiation. The series is classed as binding.
The nature of series [7]: Quantum yield of photolysis by HPLC, comparison to caged-Pi. The series is classed as physicochemical. The method, then:
The filtered output of 1000-W high pressure Hg arc lamp was used to photolyze solutions of NP-EGTA (1.77 mM) or caged-Pi (3.12 mM) in buffer (40 mM hepes, 100 mM KCl, pH 7.2) with absorbances of 0.0105 in a cuvette with a pathlength of […]. Each solution also contained inosine (100 mM) as the internal standard.
On the left, t=0 s, on the fight, t=15 s.
On the left, t=0 s, on the fight, t=15 s. HPLC was performed using a Novapak C18 reverse-phase HPLC column and two Waters 501 pumps fitted with a Waters 680 automated control module delivering 2 ml/min. Pump A delivered […] and pump B 80% acetonitrile/0.052% TFA. The gradient was for 0-5 min 100% A, from 5-20 min a linear change to 80% A, and from 20-40 min 80% A. The eluent was monitored by a Waters 990 photodiode array detector and chromatograms are shown at 260 nm.
The quantum yield of NP-EGTA photolysis was determined by comparison to that of caged-Pi which has previously been determined to have a quantum yield of photolysis of 0.54 (17). The time-course of disappearance of the caged compounds was followed by HPLC analysis of the reaction mixture (FIG. 2). The amount of NP-EGTA or caged-Pi remaining in the reaction mixture was normalized for each HPLC analysis by comparison to a photochemically inert internal standard, inosine (100 mM). […] Under the same conditions (i.e. flux density), 10.3% of NP-EGTA was photolyzed when saturating Ca^a+ (3.0 mM) was present (FIG. 2b). Thus, the quantum yield of photolysis of the NP-EGTA:Ca^2+ complex is 0.23.

Series [8] can be described thus: Absorption and fluorescence spectral properties. The series is classed as physicochemical. As for the experimental part: FIG. 1 is an absorption spectra of nitrophenyl-EGTA. The absorption spectrum of a solution of NP-EGTA ([…]) in buffer (40 mM hepes, 100 mM KCl, pH 7.2) is shown (spectrum a). The spectrum is altered (spectrum b) on addition of saturating Ca^2+ (0.20 mM). Photolysis of this sample for 300 s with the filtered output of a 1-kW Hg are lamp yielded photoproducts with spectrum (c).
The absorption spectra of NP-EGTA without and with saturating Ca^2+ are shown in FIG. 1(a) and (b) respectively. The extinction coefficients at 260 and 347 nm are 5.52×10^3 M^-1 cm^-1 and 974 M^-1 cm^-1 respectively in Ca^2+ -free buffer (40 mM hepes, 100 mM KCl, pH 7.2). Saturating Ca^2+ produces a 10% decrease in the absorption at 260 nm. The absorption spectrum changes to that shown in FIG. 1(c) upon complete photolysis in the presence of Ca^2+. […] In fact, fluo-3 saturated with Ca^2+ is about 2.1×10s-fold more fluorescent at 530 nm than NP-EGTA is at 400 nm.

[9] abbreviates: Ca^2+-free buffer, 40 mM hepes, 100 mM KCl, pH 7.2.

Take `COc1cc(C(CN(CC(=O)O)CC(=O)O)N(CC(=O)O)CC(=O)O)c([N+](=O)[O-])cc1OC` (centres unmarked) [DM-nitrophen, reference compound]: in [1], the “time to achieve half-maximal tension” value came out at 18.1 ms; the “tension transients, NP-EGTA compared with DM-nitrophen” value is recorded as “identical, rapid tension transients”; the “maximal contraction / full tension after laser flash” value (shortened to “maximal contraction / full tension”) is “Rapid development of maximal tension”; the “Ca^2+ release as rate-limiting step for contraction” value was “not rate-limiting”. Besides, in series [2], the equilibrium dissociation constant (Kd) is 0.005 µM. Also, the “Ca^2+ release t1/2” value in series [3] was at most 180 microseconds.

Consider `O=C(O)CN(CCOCCOCCN(CC(=O)O)CC(=O)O)CC(=O)O` [EGTA, ethylenebis(oxyethylenenitrilo)tetraacetic acid], for which the Kd in [2] is 0.15 µM.

On to `O=C(O)CN(CCOCCOCC(c1ccccc1[N+](=O)[O-])N(CC(=O)O)CC(=O)O)CC(=O)O` (centres unmarked) [NP-EGTA], for which, in [4], the Kd came out at 0.08 µM. For the same molecule, in series [5], the affinity, expressed as Kd, was 8800 µM and the “Kd for Mg^2+” value is on record as “in the mM range”. The “effect of 1 mM Mg^2+ on fluo-3 signal” value in series [6] (0.655 mM NP-EGTA with 0.55 mM Ca^2+) is “no effect on the fluo-3 signal; also recorded: no increase in the fluo-3 signal”. Besides, in series [6] (frequency-doubled ruby laser, 347 nm), the “Ca^2+ liberation on irradiation in presence of Mg^2+ (fluo-3 signal)” value is recorded as “liberates Ca^2+ from the NP-EGTA:Ca^2+ complex”. Moreover, the “quantum yield of photolysis, in the absence of Ca^2+” value in series [7] (Ca^2+-free, pH 7.2) is recorded as 0.20. Moreover, the “percent photolyzed with Ca^2+” value in series [7] (after 15 s, saturating Ca^2+ (3.0 mM), 0.25 min, 1770 µM) was found to be 10.3%. Moreover, the “percent photolyzed without Ca^2+” value in series [7] (same flux density, Ca^2+-free, 1770 µM) is given as 8.91%. Further, the “quantum yield of photolysis, in the presence of Ca^2+” value in [7] (saturating Ca^2+ (3.0 mM), pH 7.2) came to 0.23. Moreover, the “photolysis efficiency relative to DM-nitrophen” value in [7] (versus DM-nitrophen (ref. 4)) is recorded as “the same as that of DM-nitrophen”. Also, in series [7] (versus nitr-5 or nitr-7 (ref. 2)), the “photolysis efficiency relative to nitr-5 or nitr-7” value is given as around 6 times. The fluorescence emission entry in [8] is “virtually non-fluorescent”. For the same molecule, in series [8] (setting [9]), the “extinction coefficient at 260 nm” value came out at 5520 M⁻¹ cm⁻¹ and the “extinction coefficient at 347 nm” value turned out to be 974 M⁻¹ cm⁻¹. In addition, in series [8] (saturating Ca^2+), the “decrease in absorption at 260 nm on saturating Ca^2+” value was 10%. Also, in series [1], the “time to achieve half-maximal tension” value turned out to be 17.9 ms; the “tension transients, NP-EGTA compared with DM-nitrophen” value is recorded as “identical, rapid tension transients”; the “maximal contraction / full tension” value is given as “releases sufficient Ca^2+ to generate full tension in the muscle fiber”; the “Ca^2+ release as rate-limiting step for contraction” value is given as “also not rate-limiting”. In series [1] (listed as nitrophenyl-EGTA), the “time to achieve half-maximal tension” value is recorded as 18 ms and the “maximal contraction / full tension” value is reported as “maximal contraction after a single flash”.

On to `CC(OP(=O)(O)O)c1ccccc1[N+](=O)[O-]` (centres unmarked) [caged-Pi, 1-(o-nitrophenyl)-ethyl phosphate, reference compound], for which the percent photolyzed in [7] (after 15 s, caged-Pi 3.12 mM, 0.25 min) is listed as 15.1%.

As for `Cc1ccc(N(CC(=O)O)CC(=O)O)c(OCCOc2cc(C(O)c3cc4c(cc3[N+](=O)[O-])OCO4)ccc2N(CC(=O)O)CC(=O)O)c1` (centres unmarked) [nitr-5], where the note is “1.0 mM Ca^2+ present”, the “Ca^2+ released on 50% photolysis” value was determined as 0.80 mM and the “prephotolysis free [Ca^2+]” value stood at 0.145 mM.

`Cc1ccc(N(CC(=O)O)CC(=O)O)c(O[C@@H]2CCC[C@@H]2Oc2cc(C(O)c3cc4c(cc3[N+](=O)[O-])OCO4)ccc2N(CC(=O)O)CC(=O)O)c1` (some centres unmarked) [nitr-7]: the “Ca^2+ released on 50% photolysis” value ([chelator]:[Ca^2+] 2 mM:1.50 mM) was determined as 3 mM.
